Consider 3 compounds from patent US12234223B2, “Phthalazinone compound, and preparation method therefor and medical use thereof” (SHANGHAI JEMINCARE PHARMACEUTICALS CO., LTD, priority 2020, dated 2025).

The data set is described as follows: In-vivo pharmacokinetics in rats, oral administration. Also noted: species or system male SD rats. As to conditions: for AUC(0-inf) / Cmax / half-life: male, SD, rat, oral 10 mg/kg, plasma; for F: oral 10 mg/kg vs intravenous 1 mg/Kg. The protocol: In this experimental example, the in-vivo pharmacokinetic evaluation was made for rats by intravenous injection and oral administration.
Experimental methods and conditions: male SD rats, 6 to 8 weeks old; all animals had free access to food and water; 5 min, 15 min, 30 min, 1 hr, 2 hr, 4 hr, 8 hr, 24 hr and 48 hr after the rats were subjected to a single intravenous injection of 1 mg/Kg of a compound to be tested (solvent 5% DMSO/15% Solutol/80% Saline), or 15 min, 30 min, 1 hr, 2 hr, 4 hr, 6 hr, 8 hr, 24 hr and 48 hr after the rats were subjected to oral intragastric administration of 10 mg/kg (solvent 5% DMSO/10% Solutol/85% Saline), blood was collected from orbits, not less than 50 μL of each sample was collected, and heparin sodium was used for anticoagulation; the collected samples were placed on ice, and the plasma was centrifugally separated within 1 hour for testing. The drug concentration in the plasma was detected by liquid chromatography tandem mass spectrometry (LC/MS/MS), and the pharmacokinetic parameters were calculated by Phoenix WinNonlin software. Embodiment 82 in CN110612294 A was taken as a control sample 1.

`CC1(C)[C@H](NC(=O)c2ccc(N3CCC(CN4CCN(c5ccc6c(=O)n([C@H]7CCC(=O)NC7=O)ncc6c5)CC4)CC3)cc2)C(C)(C)[C@H]1Oc1ccc(C#N)c(Cl)c1` [Compound 28A]: the AUC(0-inf) (commonly the area under the concentration-time curve extrapolated to infinity) was found to be 3210 ng·h/mL; the Cmax (in general, the peak of the concentration-time curve) stood at 173 ng/mL; the half-life (usually how long it takes for the measured level to halve) was 8.28 h; the F came to 5.13%.

Compound `CC1(C)[C@H](NC(=O)c2ccc(N3CCC(CN4CCN(c5ccc6c(=O)n(C7CCC(=O)NC7=O)nc(F)c6c5)CC4)CC3)cc2)C(C)(C)[C@H]1Oc1ccc(C#N)c(Cl)c1` (stereo partly drawn) [Compound 29] showed an AUC(0-inf) of 6200 ng·h/mL, a peak concentration (Cmax) of 253 ng/mL, a half-life of 13.4 h and an F of 11.9%.

Compound `CC1(C)[C@H](NC(=O)c2ccc(N3CCC(CN4CCN(c5ccc6c(=O)n(C7CCC(=O)NC7=O)ncc6c5)CC4)CC3)cc2)C(C)(C)[C@H]1Oc1ccc(C#N)c(Cl)c1` (stereo partly drawn) [Compound 1] showed an AUC(0-inf) of 2650 ng·h/mL, a Cmax of 147 ng/mL, a half-life of 7.62 h and an F of 11.9%.
